Assay results from patent publication US10479795B2 (Incyte Corporation, priority 2016, dated 2019).
Read-outs that look alike come from different tables or passages of the source.

Tests used:
[1] = molecular target: PI3Kδ (p110δ/p85α) Recombinant Human Protein (Homo sapiens (Human), UniProt O00329); test: PI3Kδ Scintillation Proximity Assay; format: biochemical
Source text: Example C. PI3Kδ Scintillation Proximity Assay
[γ-^33P]ATP (10 mCi/mL) and Wheat Germ Agglutinin (WGA) YSi SPA Scintillation Beads was purchased from Perkin-Elmer (Waltham, Mass.). Lipid kinase substrate, D-myo-Phosphatidylinositol 4,5-bisphosphate (PtdIns(4,5)P2)D (+)-sn-1,2-di-O-octanoylglyceryl, 3-O-phospho linked (PIP2), CAS 204858-53-7, was purchased from Echelon Biosciences (Salt Lake City, Utah). PI3Kδ (p110δ/p85α) Recombinant Human Protein was purchased from Eurofins (St Charles, Mo.). ATP, MgCl2, DTT, EDTA, MOPS and CHAPS were purchased from Sigma-Aldrich (St. Louis, Mo.).
The kinase reaction was conducted in polystyrene 384-well Greiner Bio-one white plate from Thermo Fisher Scientific in a final volume of 25 μL. Inhibitors were first diluted serially in DMSO and added to the plate wells before the addition of other reaction components. The final concentration of DMSO in the assay was 2%. The PI3Kδ assay was carried out at room temperature in 20 mM MOPS, pH 6.7, 10 mM MgCl2, 5 mM DTT and CHAPS 0.03%. Reactions were initiated by the addition of ATP, the final reaction mixture consisted of 20 μM PIP2, 2 μM ATP, 0.5 μCi [γ-^33P] ATP, 3.4 nM PI3Kδ. Reactions were incubated for 120 min and terminated by the addition of 40 μL SPA beads suspended in quench buffer: 163 mM potassium phosphate pH 7.8, 20% glycerol, 25 mM EDTA. The final concentration of SPA beads is 1.0 mg/mL. After the plate sealing, plates were shaken overnight at room temperature and centrifuged at 1500 rpm for 10 min, the radioactivity of the product was determined by scintillation counting on Topcount (Perkin-Elmer). IC50 determination was performed by fitting the curve of percent of the solvent control activity versus the log of the inhibitor concentration using the GraphPad Prism 6.0 software.

[2] = molecular target: PI3Kγ (p110γ) Recombinant Human Protein (Homo sapiens (Human), UniProt P48736); test: PI3K-γ Scintillation Proximity Assay; format: biochemical
Sequence of PI3Kγ (p110γ) Recombinant Human Protein (P48736 whole entry): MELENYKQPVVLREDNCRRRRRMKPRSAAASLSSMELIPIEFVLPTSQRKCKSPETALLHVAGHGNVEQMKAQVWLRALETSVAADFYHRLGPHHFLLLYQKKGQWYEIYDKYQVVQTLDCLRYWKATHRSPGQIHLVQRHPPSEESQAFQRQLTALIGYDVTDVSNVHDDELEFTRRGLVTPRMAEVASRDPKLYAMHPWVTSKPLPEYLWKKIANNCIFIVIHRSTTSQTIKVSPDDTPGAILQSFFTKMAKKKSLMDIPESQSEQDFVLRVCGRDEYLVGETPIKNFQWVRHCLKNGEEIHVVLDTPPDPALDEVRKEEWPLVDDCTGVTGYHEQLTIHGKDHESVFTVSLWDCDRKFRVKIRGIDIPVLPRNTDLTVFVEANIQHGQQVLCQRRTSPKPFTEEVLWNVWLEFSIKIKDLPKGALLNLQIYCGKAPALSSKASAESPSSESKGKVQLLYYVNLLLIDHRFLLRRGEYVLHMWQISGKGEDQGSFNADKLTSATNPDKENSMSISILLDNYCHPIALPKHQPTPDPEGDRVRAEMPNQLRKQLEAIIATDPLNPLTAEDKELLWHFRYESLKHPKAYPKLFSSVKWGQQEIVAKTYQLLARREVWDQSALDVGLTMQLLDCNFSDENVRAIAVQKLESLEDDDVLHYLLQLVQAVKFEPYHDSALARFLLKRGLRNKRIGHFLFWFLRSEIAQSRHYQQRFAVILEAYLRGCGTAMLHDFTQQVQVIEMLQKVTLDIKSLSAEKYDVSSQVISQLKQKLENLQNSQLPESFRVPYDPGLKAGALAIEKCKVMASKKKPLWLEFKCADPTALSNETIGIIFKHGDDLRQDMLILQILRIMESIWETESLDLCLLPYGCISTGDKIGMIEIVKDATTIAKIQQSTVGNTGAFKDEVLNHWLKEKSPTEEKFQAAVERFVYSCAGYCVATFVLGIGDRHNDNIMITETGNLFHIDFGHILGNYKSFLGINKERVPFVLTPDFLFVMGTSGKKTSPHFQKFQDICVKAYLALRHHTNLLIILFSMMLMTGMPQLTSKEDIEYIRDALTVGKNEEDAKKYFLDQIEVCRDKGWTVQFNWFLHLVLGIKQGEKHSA
Method in brief: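 Recombinant human p110γ assayed at room temperature in 20 mM MOPS pH 6.7, 10 mM MgCl2, 5 mM DTT, 0.03% CHAPS, 2% DMSO, with 20 μM PIP2 and 2 μM ATP plus [γ-33P]ATP. Product captured on WGA SPA beads overnight and counted; IC50 fitted from % of solvent-control activity versus log inhibitor concentration.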

Sequence of PI3Kδ (p110δ/p85α) Recombinant Human Protein (O00329 whole entry): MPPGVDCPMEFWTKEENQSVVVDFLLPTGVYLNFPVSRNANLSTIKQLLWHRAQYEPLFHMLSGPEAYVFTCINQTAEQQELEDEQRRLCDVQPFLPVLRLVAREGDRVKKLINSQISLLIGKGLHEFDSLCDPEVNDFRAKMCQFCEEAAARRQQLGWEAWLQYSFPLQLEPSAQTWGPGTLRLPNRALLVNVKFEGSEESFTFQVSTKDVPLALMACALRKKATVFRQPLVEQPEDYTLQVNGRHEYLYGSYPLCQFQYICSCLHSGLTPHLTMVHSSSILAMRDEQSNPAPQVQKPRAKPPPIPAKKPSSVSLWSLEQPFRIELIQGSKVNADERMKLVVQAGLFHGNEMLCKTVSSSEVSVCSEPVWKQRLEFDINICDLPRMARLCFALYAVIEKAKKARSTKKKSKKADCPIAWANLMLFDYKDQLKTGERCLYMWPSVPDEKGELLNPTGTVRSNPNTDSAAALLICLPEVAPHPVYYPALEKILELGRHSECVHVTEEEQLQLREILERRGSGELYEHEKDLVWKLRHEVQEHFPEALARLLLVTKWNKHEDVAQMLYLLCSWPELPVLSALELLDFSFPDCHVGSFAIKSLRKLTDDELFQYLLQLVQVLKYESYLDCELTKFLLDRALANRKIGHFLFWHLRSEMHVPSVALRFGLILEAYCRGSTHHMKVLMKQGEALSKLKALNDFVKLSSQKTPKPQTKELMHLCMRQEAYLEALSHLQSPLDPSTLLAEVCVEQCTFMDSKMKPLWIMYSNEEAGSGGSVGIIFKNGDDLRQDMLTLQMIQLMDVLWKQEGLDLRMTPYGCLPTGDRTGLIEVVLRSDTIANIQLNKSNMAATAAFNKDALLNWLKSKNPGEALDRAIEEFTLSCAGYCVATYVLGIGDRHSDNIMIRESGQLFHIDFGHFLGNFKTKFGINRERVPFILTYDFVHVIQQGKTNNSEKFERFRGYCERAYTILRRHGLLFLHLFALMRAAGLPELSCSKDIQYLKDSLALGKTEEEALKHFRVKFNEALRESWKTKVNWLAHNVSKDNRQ
Sequence of PI3Kδ (p110δ/p85α) Recombinant Human Protein (P27986 whole entry partner): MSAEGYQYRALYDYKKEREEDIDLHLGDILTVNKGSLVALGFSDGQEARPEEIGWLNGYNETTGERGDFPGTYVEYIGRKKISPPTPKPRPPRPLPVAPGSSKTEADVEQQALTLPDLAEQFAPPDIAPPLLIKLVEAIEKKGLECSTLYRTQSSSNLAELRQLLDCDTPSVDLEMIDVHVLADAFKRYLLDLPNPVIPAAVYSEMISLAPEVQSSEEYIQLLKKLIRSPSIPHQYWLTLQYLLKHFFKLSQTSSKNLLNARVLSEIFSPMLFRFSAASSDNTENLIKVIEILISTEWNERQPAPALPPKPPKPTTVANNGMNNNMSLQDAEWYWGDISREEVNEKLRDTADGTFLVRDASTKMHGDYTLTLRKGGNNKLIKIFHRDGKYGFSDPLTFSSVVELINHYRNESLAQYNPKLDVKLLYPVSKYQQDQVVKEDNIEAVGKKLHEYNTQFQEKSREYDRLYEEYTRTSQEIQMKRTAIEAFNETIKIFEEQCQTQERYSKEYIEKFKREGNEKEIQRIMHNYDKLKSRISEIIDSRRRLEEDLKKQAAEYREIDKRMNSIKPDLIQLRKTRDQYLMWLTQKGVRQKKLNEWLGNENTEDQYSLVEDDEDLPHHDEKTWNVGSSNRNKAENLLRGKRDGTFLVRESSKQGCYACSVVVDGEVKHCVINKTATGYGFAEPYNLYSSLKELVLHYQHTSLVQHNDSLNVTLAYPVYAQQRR

Compound | IC50 [1] [nM] | IC50 ([2]; read-out: PI3Kγ IC50) [nM] | IC50 [2] [nM]
CO[C@@H]1CN(S(=O)(=O)c2ccc(C)c(-c3cnc4c(N)ncnn34)c2)C[C@H]1F [Example 151, 7-(5-(((3R,4R)-3-fluoro-4-methoxypyrrolidin-1-yl)sulfonyl)-2-methylphenyl)imidazo[2,1-f][1,2,4]triazin-4-amine] | 100 to 500 | < 100 | 
Cc1ccc(S(=O)(=O)N2CCC[C@@H]2CO)cc1-c1cnc2c(N)ncnn12 [Example 152] | 500 to 2000 | < 100 | 
Cc1ccc(S(=O)(=O)N2CC(C3COC3)C2)cc1-c1cnc2c(N)ncnn12 [Example 153, 7-(2-methyl-5-((3-(oxetan-3-yl)azetidin-1-yl)sulfonyl)phenyl)imidazo[2,1-f][1,2,4]triazin-4-amine] | 500 to 2000 | < 100 | 
Cc1ccc(S(=O)(=O)N(C)CCC#N)cc1-c1cnc2c(N)ncnn12 [Example 154, 3-(4-aminoimidazo[2,1-f][1,2,4]triazin-7-yl)-N-(2-cyanoethyl)-N,4-dimethylbenzenesulfonamide] | > 2000 | < 100 | 
Cc1ccc(S(=O)(=O)N2CC(C)OCC2(C)C)cc1-c1cnc2c(N)ncnn12 (stereo not shown) [Example 158, 7-(2-methyl-5-((2,5,5-trimethylmorpholino)sulfonyl)phenyl)imidazo[2,1-f][1,2,4]triazin-4-amine] | 500 to 2000 | < 100 | 
Cc1ccc(S(=O)(=O)N(C)C2CC(O)C2)cc1-c1cnc2c(N)ncnn12 [Example 159, 3-(4-aminoimidazo[2,1-f][1,2,4]triazin-7-yl)-N-((1R,3R)-3-hydroxycyclobutyl)-N,4-dimethylbenzenesulfonamide] | > 2000 | 100 to 500 | 
Cc1ccc(S(=O)(=O)N(C)CC2(CO)CC2)cc1-c1cnc2c(N)ncnn12 [Example 160, 3-(4-aminoimidazo[2,1-f][1,2,4]triazin-7-yl)-N-((1-(hydroxymethyl)cyclopropyl)methyl)-N,4-dimethylbenzenesulfonamide] | 500 to 2000 | 100 to 500 | 
Cc1ccc(S(=O)(=O)N2CCS(=O)(=O)CC2)cc1-c1cnc2c(N)ncnn12 [Example 161, 4-((3-(4-aminoimidazo[2,1-f][1,2,4]triazin-7-yl)-4-methylphenyl)sulfonyl)thiomorpholine 1,1-dioxide] | 100 to 500 | < 100 | 
Cc1ccc(S(=O)(=O)N2CCS(=O)(=O)CC2C)cc1-c1cnc2c(N)ncnn12 (stereo not shown) [Example 162, 4-((3-(4-aminoimidazo[2,1-f][1,2,4]triazin-7-yl)-4-methylphenyl)sulfonyl)-3-methylthiomorpholine 1,1-dioxide] | 500 to 2000 | < 100 | 
Cc1ccc(S(=O)(=O)N(C)CC(F)(F)F)cc1-c1cnc2c(N)ncnn12 [Example 163, 3-(4-aminoimidazo[2,1-f][1,2,4]triazin-7-yl)-N,4-dimethyl-N-(2,2,2-trifluoroethyl)benzenesulfonamide] | 500 to 2000 | < 100 | 
Cc1ccc(S(=O)(=O)N2C3CCC2CC(N2CCOCC2)C3)cc1-c1cnc2c(N)ncnn12 (stereo not shown) [Example 169, 7-(2-methyl-5-((3-morpholino-8-azabicyclo[3.2.1]octan-8-yl)sulfonyl)phenyl)imidazo[2,1-f][1,2,4]triazin-4-amine] | > 2000 | 100 to 500 | 
Cc1ccc(S(=O)(=O)N2[C@@H]3CC[C@H]2CN(C)C3)cc1-c1cnc2c(N)ncnn12 [Example 170, 7-(2-methyl-5-(((1R,5S)-3-methyl-3,8-diazabicyclo[3.2.1]octan-8-yl)sulfonyl)phenyl)imidazo[2,1-f][1,2,4]triazin-4-amine] | 500 to 2000 | < 100 | 
Cc1ccc(S(=O)(=O)N(C)CC2(C)COC2)cc1-c1cnc2c(N)ncnn12 [Example 176, 3-(4-aminoimidazo[2,1-f][1,2,4]triazin-7-yl)-N,4-dimethyl-N-((3-methyloxetan-3-yl)methyl)benzenesulfonamide] | > 2000 |  | 100 to 500

More lines, main results first:

IC50 [1] [nM] | IC50 ([2]; read-out: PI3Kγ IC50) [nM] | Compound | IC50 [2] [nM]
500 to 2000 | < 100 | CCCN(CC1CC1)S(=O)(=O)c1ccc(C)c(-c2cnc3c(N)ncnn23)c1 [Example 164, 3-(4-aminoimidazo[2,1-f][1,2,4]triazin-7-yl)-N-(cyclopropylmethyl)-4-methyl-N-propylbenzenesulfonamide] | 
> 2000 | 100 to 500 | Cc1ccc(S(=O)(=O)N2C[C@H](O)[C@@H](N3CCN(C)CC3)C2)cc1-c1cnc2c(N)ncnn12 [Example 167, (3S,4S)-1-((3-(4-aminoimidazo[2,1-f][1,2,4]triazin-7-yl)-4-methylphenyl)sulfonyl)-4-(4-methylpiperazin-1-yl)pyrrolidin-3-ol] | 
500 to 2000 | < 100 | Cc1ccc(S(=O)(=O)N2CCCC2c2c(C)noc2C)cc1-c1cnc2c(N)ncnn12 (stereo not shown) [Example 168, 7-(5-((2-(3,5-dimethylisoxazol-4-yl)pyrrolidin-1-yl)sulfonyl)-2-methylphenyl)imidazo[2,1-f][1,2,4]triazin-4-amine] | 
500 to 2000 | 100 to 500 | Cc1ccc(S(=O)(=O)N2CCN(C3CC3)C(=O)C2)cc1-c1cnc2c(N)ncnn12 [Example 171, 4-((3-(4-aminoimidazo[2,1-f][1,2,4]triazin-7-yl)-4-methylphenyl)sulfonyl)-1-cyclopropylpiperazin-2-one] | 
500 to 2000 | 100 to 500 | Cc1ccc(S(=O)(=O)N2CC(=O)N3CCCC[C@@H]3C2)cc1-c1cnc2c(N)ncnn12 [Example 172, (R)-2-((3-(4-aminoimidazo[2,1-f][1,2,4]triazin-7-yl)-4-methylphenyl)sulfonyl)octahydro-4H-pyrido[1,2-a]pyrazin-4-one] | 
> 2000 | 100 to 500 | Cc1ccc(S(=O)(=O)N(CCC#N)C2CCCCC2)cc1-c1cnc2c(N)ncnn12 [Example 173, 3-(4-aminoimidazo[2,1-f][1,2,4]triazin-7-yl)-N-(2-cyanoethyl)-N-cyclohexyl-4-methylbenzenesulfonamide] | 
> 2000 | 100 to 500 | Cc1ccc(S(=O)(=O)N2CCN3C(=O)OC[C@H]3C2)cc1-c1cnc2c(N)ncnn12 [Example 174, (R)-7-((3-(4-aminoimidazo[2,1-f][1,2,4]triazin-7-yl)-4-methylphenyl)sulfonyl)hexahydro-3H-oxazolo[3,4-a]pyrazin-3-one] | 
500 to 2000 | < 100 | COCC1(N(C)S(=O)(=O)c2ccc(C)c(-c3cnc4c(N)ncnn34)c2)CC1 [Example 177, 3-(4-aminoimidazo[2,1-f][1,2,4]triazin-7-yl)-N-(1-(methoxymethyl)cyclopropyl)-N,4-dimethylbenzenesulfonamide] | 
500 to 2000 | < 100 | Cc1ccc(S(=O)(=O)N(C)CC2(CO)CCC2)cc1-c1cnc2c(N)ncnn12 [Example 178, 3-(4-aminoimidazo[2,1-f][1,2,4]triazin-7-yl)-N-((1-(hydroxymethyl)cyclobutyl)methyl)-N,4-dimethylbenzenesulfonamide] | 
500 to 2000 | < 100 | CCN(CC1CCCO1)S(=O)(=O)c1ccc(C)c(-c2cnc3c(N)ncnn23)c1 (stereo not shown) [Example 179, 3-(4-aminoimidazo[2,1-f][1,2,4]triazin-7-yl)-N-ethyl-4-methyl-N-((tetrahydrofuran-2-yl)methyl)benzenesulfonamide] | 
